Results reported in PubChem BioAssay (NCI).
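Dose response: 5 concentrations. Exposure: 48 h. Format: 96-well plates. Endpoint: linear interpolation; highest concentration if not reached. The concentration for full growth arrest is given as TGI.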

Legend:
Experiment in all cases: growth of human tumour cells (NCI), 48 h
NCI-H460 lung = tested on: NCI-H460 lung
CCRF-CEM leukemia = tested on: CCRF-CEM leukemia
HOP-62 NSCLC = tested on: HOP-62 NSCLC
SN12C renal = tested on: SN12C renal
LOX IMVI melanoma = tested on: LOX IMVI melanoma
UO-31 renal = tested on: UO-31 renal
M14 melanoma = tested on: M14 melanoma
RXF 393 renal = tested on: RXF 393 renal
SNB-75 CNS = tested on: SNB-75 CNS
NCI-H226 lung = tested on: NCI-H226 lung
HOP-92 NSCLC = tested on: HOP-92 NSCLC
MDA-MB-435 = tested on: MDA-MB-435
HL-60(TB) leukemia = tested on: HL-60(TB) leukemia
A498 renal = tested on: A498 renal
PC-3 prostate = tested on: PC-3 prostate
NCI/ADR-RES ovarian = tested on: NCI/ADR-RES ovarian
T-47D breast = tested on: T-47D breast

Row | Structure (SMILES) | TGI (NCI-H460 lung) | TGI (CCRF-CEM leukemia) | TGI (HOP-62 NSCLC) | TGI (SN12C renal) | TGI (LOX IMVI melanoma) | TGI (UO-31 renal) | TGI (M14 melanoma) | TGI (RXF 393 renal) | TGI (SNB-75 CNS) | TGI (NCI-H226 lung) | TGI (HOP-92 NSCLC) | TGI (MDA-MB-435) | TGI (HL-60(TB) leukemia) | TGI (A498 renal) | TGI (PC-3 prostate) | TGI (NCI/ADR-RES ovarian) | TGI (T-47D breast)
1 | COc1cc(C2C(Cl)C(=O)N2n2cnc3ccccc3c2=O)ccc1O (centres undefined) | > 100 µM | > 100 µM | > 100 µM | > 100 µM | > 100 µM | > 100 µM | > 100 µM | > 100 µM | > 100 µM | > 100 µM | – | – | – | – | – | – | –
2 | CON(C)C(=O)C(C)N(Cc1ccccc1)Cc1ccccc1 (centres undefined) | > 100 µM | > 100 µM | > 100 µM | – | – | > 100 µM | > 100 µM | > 100 µM | > 100 µM | > 100 µM | > 100 µM | > 100 µM | > 100 µM | > 100 µM | > 100 µM | > 100 µM | –
3 | O=C1/C(=C/c2ccco2)NC(=S)N1CN1CCCCC1 | – | > 100 µM | > 100 µM | > 100 µM | > 100 µM | > 100 µM | > 100 µM | – | > 100 µM | > 100 µM | > 100 µM | > 100 µM | – | > 100 µM | > 100 µM | > 100 µM | –
4 | N#Cc1cccc(-n2[nH]c(=O)ccc2=O)c1 | > 100 µM | > 100 µM | > 100 µM | – | – | > 100 µM | > 100 µM | – | > 100 µM | > 100 µM | > 100 µM | – | > 100 µM | – | – | – | –
5 | Cc1ccc(S[C@@H](C)[C@@](O)(CF)CN(Cc2ccccc2)C(=O)C(F)(F)F)cc1 | 36.9 µM | > 100 µM | – | 33.5 µM | > 100 µM | 31 µM | 31.7 µM | – | – | – | > 100 µM | 40.4 µM | 46.2 µM | 29.7 µM | 94.3 µM | 69.5 µM | 68.5 µM
6 | CCCC/C=C/C=C/C=C/CCCCCCCC(=O)OCC(COC(=O)CCCCCCC/C=C/C1C=CC(CCCC)C(C(=O)O)C1C(=O)O)OC(=O)CCCCCCC/C=C/C=C/C=C/CCCC (centres undefined) (tested in a mixture with another compound) | > 100 µM | 34.2 µM | 38.6 µM | 44.3 µM | 27.5 µM | 34.7 µM | 29.7 µM | – | 36.7 µM | 35.8 µM | 48.1 µM | – | 41.1 µM | 34.4 µM | – | – | –
7 | Nc1nc(Cl)cc(OCC2(CO)CC=CC2)n1 | > 100 µM | > 100 µM | > 100 µM | > 100 µM | > 100 µM | – | – | > 100 µM | > 100 µM | > 100 µM | > 100 µM | > 100 µM | > 100 µM | > 100 µM | > 100 µM | > 100 µM | –
8 | COc1cc2c(cc1O)[C@H](C)C(c1ccc(OC)c(OC)c1)O2 (some centres undefined) | 4.87 µM | 25.6 µM | > 100 µM | – | 16 µM | 64 µM | 15.9 µM | 30.3 µM | 11.7 µM | 64.6 µM | 23.1 µM | – | 13.7 µM | > 100 µM | – | – | –
9 | O=c1[nH]c2cc(Cl)ccc2nc1/C(=N\Nc1ccccc1)C(O)c1ccc(Cl)c(Cl)c1 (centres undefined) | > 100 µM | > 100 µM | > 100 µM | > 100 µM | > 100 µM | > 100 µM | > 100 µM | > 100 µM | > 100 µM | > 100 µM | > 100 µM | – | > 100 µM | – | – | – | –
